Source: patent publication US11806352B2, “Theobromine for increasing HDL-cholesterol” (UPFIELD EUROPE B.V., priority 2010, dated 2023)
Values joined by “and” are separate entries in the source; they are usually repeats but may differ in a detail not shown here. Identical values can stand only once.

Assays:
[1] = system: healthy males and females; assay: Example 2: randomized placebo-controlled 2 by 2 factorial parallel study, dairy drinks, blood lipid profile; format: in vivo, humans
Protocol: In a randomized controlled intervention study with 153 healthy males and females the effect of drinks containing cocoa, added theobromine or a combination of cocoa and added theobromine was assessed on HDL cholesterol (HDL-C). As a secondary objective the effect of the various drinks on total cholesterol (TC), LDL cholesterol (LDL-C), Triglycerides (TG) and blood pressure (BP) was assessed. […] After a run-in period of 2 weeks the subjects consumed for 4 weeks daily (in the morning one hour before breakfast) 200 ml acidified dairy drink as in table 5, with added to that 1) none (control drink), 2) 5.9 g cocoa powder (Acticoa, Barry-Callebaut) containing about 500 mg polyphenols and 150 mg theobromine 3) about 850 mg synthetic theobromine (Fagron) and 4) 5.9 g cocoa powder containing 500 mg polyphenols and 150 mg theobromine plus added thereto about 850 mg synthetic theobromine (Fagron) (in total about 1 g theobromine). The synthetic theobromine used was: theobromine complying with European Pharmacopeia 5.7, as available from […], Belgium. For preparing the test products containing theobromine, theobromine was dissolved in a 1 M NaOH solution to create a theobromine stock solution, containing approximately 170 mg/ml of thebromine. The various drinks used in the trial have been made using the following processing: • mixing of the pectin with all of the sugar • dispersing the pectin/sugar mix with part of the demi water at 80° C. to prepare a pectin slurry • dissolving smp in the remainder of the demi water at a temperature of 40° C. • adding the cream • adding the xanthan gum under vigorous mixing for 15 minutes • adding the pectin slurry • adding sucralose • (depending on the drink: adding the cacao slowly under vigorous mixing) • (depending on the drink: adding the theobromine solution) • adding the sunflower oil • adding the flavours and colorants • acidifying the premix with lactic acid until pH 4.2 Inclusion criteria: generally healthy men and pre-menopausal women, age 40-70, with a 10-year risk of developing CHD<10%, not on active cholesterol-lowering or anti-hypertensive treatment and non-smoking. Details of the subject characteristics are set out in table 6. Venous blood samples were drawn from the antecubital vein in SST II advance BD tubes in fasting condition (morning, before breakfast) for blood lipid profile (HDL-C, LDL-C, total cholesterol (TC), triglycerides, HDL-C being herein high density lipoprotein cholesterol, and LDL-C herein being low density lipoprotein cholesterol). The blood samples were taken twice at baseline and were repeated twice after the end of the intervention period. All measurements were done with standard laboratory techniques. Serum lipid outcomes were done in the Intention to treat (ITT) and Per Protocol (PP) population. The statistical analysis was done according to a full 2×2 factorial design including interaction of theobromine and cocoa. Gender within treatment and baseline blood lipids were included in the model as covariates. A 2 sided p-value<0.05 was considered significant.

[2] = system: healthy males and females; assay: Example 2: same intervention study, blood pressure; format: in vivo, humans
Protocol: In a randomized controlled intervention study with 153 healthy males and females the effect of drinks containing cocoa, added theobromine or a combination of cocoa and added theobromine was assessed on HDL cholesterol (HDL-C). As a secondary objective the effect of the various drinks on total cholesterol (TC), LDL cholesterol (LDL-C), Triglycerides (TG) and blood pressure (BP) was assessed.
After a run-in period of 2 weeks the subjects consumed for 4 weeks daily (in the morning one hour before breakfast) 200 ml acidified dairy drink as in table 5, with added to that 1) none (control drink), 2) 5.9 g cocoa powder (Acticoa, Barry-Callebaut) containing about 500 mg polyphenols and 150 mg theobromine 3) about 850 mg synthetic theobromine (Fagron) and 4) 5.9 g cocoa powder containing 500 mg polyphenols and 150 mg theobromine plus added thereto about 850 mg synthetic theobromine (Fagron) (in total about 1 g theobromine). The synthetic theobromine used was: theobromine complying with European Pharmacopeia 5.7, as available from Fagron, Waregem, Belgium.
Inclusion criteria: generally healthy men and pre-menopausal women, age 40-70, with a 10-year risk of developing CHD<10%, not on active cholesterol-lowering or anti-hypertensive treatment and non-smoking. Details of the subject characteristics are set out in table 6.
The statistical analysis was done according to a full 2×2 factorial design including interaction of theobromine and cocoa. Gender within treatment and baseline blood lipids were included in the model as covariates. A 2 sided p-value<0.05 was considered significant.

Wistar rats [3] = details: 700 mg/kg body weight; cited from earlier work
Wistar rats [4] = details: rats fed a diet supplemented with 0.3% of theobromine; cited from earlier work
[5] = after 4 weeks, ITT, baseline ratio and gender as covariables
[6] = fasting blood, after 4 weeks daily 200 ml drink, ITT, baseline and gender as covariables
[7] = pair-wise comparison, treatment A = Placebo, 4 weeks

## Cn1cnc2c1c(=O)[nH]c(=O)n2C [Theobromine, 2,6-dihydroxy-3,7-dimethylpurine]
[1]; 4 weeks
  HDL-C increase compared to placebo: ~10%
  Serum LDL-C decrease compared to placebo: about 5%
[1]; 4 weeks, compared to placebo
  Serum LDL-C decrease: 0.18 mmol/L
[1]; 4 weeks, main apoprotein found in HDL particles
  increase in ApoA1 concentrations: 0.11
[1]; after 4 weeks, ITT, baseline and gender as covariables
  Triglyceride, Mean: 1.05 mmol/L
[1]; [5]
  HDL-C/LDL-C ratio, Mean: 0.52
  HDL-C/non-HDL-C ratio, Mean: 0.43
[1]; fasting blood, after 4 weeks daily 200 ml drink, ITT n=143, baseline and gender as covariables
  Total cholesterol, Mean: 5.82 mmol/L
[1]; [6]
  HDL-C, Mean: 1.75 mmol/L
  LDL-C, Mean: 3.30 mmol/L
[1]; [7]
  HDL-C, Change (A − B): 0.159 mmol/L
  HDL-C/LDL_c ratio, Change (A − B): 0.12 and 0.117
  HDL-C/non-HDL-C ratio, Change (A − B): 0.13 and 0.126
  LDL-C, Change (A − B): -0.184 mmol/L
  Total cholesterol, Change (A − B): -0.038 mmol/L
  Triglycerides, Change (A − B): 0.018 mmol/L
[1]; pair-wise comparison, treatment A = Placebo, 4 weeks, listed as theobromine
  HDL-C, Change (A − B): 0.16 mmol/L
[2]; 4 weeks, vs control
  effect on blood pressure: no significant effect
[2]; after 4 weeks, ITT, baseline DBP and gender as covariables
  DBP, Mean: 75.0 mm Hg
[2]; after 4 weeks, ITT, baseline SBP and gender as covariables
  SBP, Mean: 121.2 mm Hg
[2]; [7]
  DBP, Change (A − B): −0.20 mm Hg
  SBP, Change (A − B): 2.55 mm Hg
Wistar rats [3]
  HDL-cholesterol: elevated
  LDL-cholesterol: decreased
  total cholesterol: decreased
  triglycerides: decreased
Wistar rats [4]
  Serum total cholesterol: significantly increased
